In assay [1] the target is T1, human HSD17β13 (stable HEK293T cell line overexpressing human HSD17β13) (Homo sapiens, UniProt Q7Z5P4).
T1 construct: expressed in transfected cells
T1 sequence (Q7Z5P4 20-300): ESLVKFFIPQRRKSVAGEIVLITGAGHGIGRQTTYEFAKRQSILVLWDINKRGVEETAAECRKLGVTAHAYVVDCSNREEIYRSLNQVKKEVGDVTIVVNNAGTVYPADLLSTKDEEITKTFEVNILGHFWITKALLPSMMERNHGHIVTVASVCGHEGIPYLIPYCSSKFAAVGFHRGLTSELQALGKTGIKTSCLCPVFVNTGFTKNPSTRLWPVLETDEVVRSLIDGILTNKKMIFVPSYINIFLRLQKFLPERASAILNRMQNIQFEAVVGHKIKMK
Kind of assay: HSD17β13 inhibitor cell-based screening assay (conversion of estradiol-d2 to estrone-d2 by RF-MS). The settings on record: conversion of estradiol-d2 to estrone-d2 after 24 hours. The procedure, abridged:
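Cellular IC50 is based on 24-h conversion of estradiol-d2 (5 μM final) to estrone-d2, measured by RF-MS in acetonitrile-precipitated supernatants. Assay uses human HSD17β13-overexpressing HEK293T cells (7.5E3/well, 1% charcoal/dextran FBS MEM), with compounds dosed as a 9-point 1:3 series to 10 μM final. ATPlite luminescence on overexpressing and parent lines measured viability.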

Assay [2] relates to human precision cut lung slices from a normal donor treated with fibrotic cocktail. Kind of assay: Human precision cut lung slice (PCLS) culture, normal donor treated with fibrotic cocktail. It counts as cell-based. As to conditions: normal donor PCLS treated 8 days with pro-fibrotic cocktail (FC); FIG. 2a, FIG. 3. As to the method:
Human PCLS were generated from lung explants of patients with pulmonary fibrosis (donor ID #221028) or normal donor (donor ID #220730). Cryopreserved hPCLSs were obtained from Institute for In Vitro Sciences (IIVS) and maintained with air-liquid interface culture approach under 37° C., 5% CO2 and 95% humidity. hPCLS were cultured in DMEM-F12 (Invitrogen, Cat No. 11330032) containing 0.2% primocin (Invivogen, Cat No. ant-pm-1) and 1% insulin-transferrin-selenium (ITS-G; Invitrogen, Cat No. 41400045), after initial acclimation in acclimation media, including culture media supplemented with 1% antibiotic antimycotic solution (Invitrogen, Cat No. 15240062), 2 mM Hydrocortisone (Millipore Sigma,) and 5 mg/ml 2-phospho-L-abscorbic acid trisodium salt (Millipore Sigma, Cat No. 49752-10G) for 3 days. Slices of tissue were flatly grown in the tissue culture inserts with 0.4 μm pores of a 12-well plate (StemCell Technologies, Cat No. 1001027), supplemented with 100 μl culture media in the apical side containing PCLSs, and 900 μL culture media in the basal compartment. Media were changed every 48 hours. hPCLS were treated and randomly assigned in replicates of 6-8 per condition 7 days after recovery from cryopreservation. […] IPF donor PCLS were collected at day 8 for subsequent RNA isolation and gene expression quantification. […]

Each structure is given as a SMILES string.

As a reminder, the IC50 is the midpoint of a concentration-inhibition curve. A high value points to weaker potency in that assay. In turn, `CS(=O)(=O)c1ccc(-c2nc3sc4c(O)c(Cl)ccc4c3c(=O)n2Cc2cnc(C(F)(F)F)nc2)c(C2CC2)c1` [Example 64, 7-chloro-2-(2-cyclopropyl-4-(methylsulfonyl)phenyl)-8-hydroxy-3-((2-(trifluoromethyl)pyrimidin-5-yl)methyl)benzo[4,5]thieno[2,3-d]pyrimidin-4(3H)-one] gave an IC50 in assay [1] of less than 100 nM. Also, the “collagen (COL1A1) mRNA expression” value in assay [2] is listed as “decreased”.
In the same order, the values of `COc1ccc(-c2nc3sc4c(O)c(Cl)ccc4c3c(=O)n2Cc2cnco2)c(C2CC2)c1` [Example 26, 7-chloro-2-(2-cyclopropyl-4-methoxyphenyl)-8-hydroxy-3-(oxazol-5-ylmethyl)benzo[4,5]thieno[2,3-d]pyrimidin-4(3H)-one] are less than 100 nM and “decreased”.

For the origin of these results see patent US20250154163A1, “Pyrimidinone-Containing 17-Beta-Hydroxysteroid Dehydrogenase Type 13 Inhibitors” (ENANTA PHARMACEUTICALS, INC., priority 2023, published 2025).
